Consider three molecules from patent publication US9695195B2, “5-HT3 receptor antagonists” (Takeda Pharmaceutical Company Limited, priority 2012, dated 2017).

For assay [1], the system named is subchronic PCP-induced impairment in cognition memory. In words: Rodent novel object recognition (NOR) assay in phencyclidine-induced cognitive deficits modeling schizophrenia. In kind it is in vivo, rat. The conditions noted are these: PCP-treated rats. The source says:
The aim of this study was to investigate the ability of the compounds of the invention to improve subchronic PCP-induced impairment in cognition memory using the NOR task in the rat, a paradigm of relevance to cognition in schizophrenia. Adult male Sprague-Dawley rats (250-350 g; Harlan, USA) were used for the experiments. Animal were acclimated to the facility for 7 days prior to experimentation. Seven groups of 14 animals per group were used for the experiment. One group of animals received vehicle (0.9% saline twice daily) and the remaining six groups received PCP (2.5 mg/kg, s.c. twice daily) for 7 days, followed by 5-days drug free. On the test day, the animals were allowed to acclimate to the testing room for 30 min prior to initiation of experiments. Experiments were carried out in a white plexiglass chamber, designated as experimental arena. The arena was placed in a dark experimental room that was illuminated by a halogen lamp, providing a dim light to the arena.
Animals were placed in the arena for a 5 minute period to freely explore the test chamber in the absence of objects (habituation). Animals were then returned to their home cage immediately upon completion of habituation for a 120 min period. (1R,3R,5S)-8-Methyl-8-azabicyclo[3.2.1]octan-3-yl 1-(2,2,2-trifluoroethyl)-1H-indole-3-carboxylate (0.1, 1, 10 mg/kg s.c.), or vehicle (veh, saline) was administered 120 min prior to T1 and galantamine (5 mg/kg, i.p.) was administered 30 min prior to T1. Animals were returned to the arena which contained two identical objects (plastic balls) placed at one end of the arena (acquisition, T1), and allowed to explore for a 5 min period. The time spent exploring the two objects was recorded. Animals were once again returned to the home cage for a period of 120 min (ITI).
ITI was followed by the retention phase (T2) where one of the objects presented in the first trial was replaced by a novel object and animals were allowed to explore for an additional 5 min period. Again, the time spent exploring the two objects was recorded.
For the retention phase, the differences between the time spent exploring the familiar object and the novel object were examined. All sessions were recorded and scored blindly for the time exploring objects. Exploration is defined as touching the object or directing nose towards object at a distance less that 2 cm. A minimal exploration criterion was used such that only animals with exploration time of greater than 5 seconds per object were included.
Comparisons of all treatment groups were conducted using a one-way ANOVA followed by a Bonferroni's post hoc test for multiple comparisons.

Assay [2] concerns the target 5HT3a receptor (Homo sapiens (Human), UniProt P46098). In words: Inhibition of Ca flux activity of 5HT3 in vitro assay. In kind it is cell-based. The following applies: 5HT3a expressed in HEK-293T cells; 5HT 216 nM; approximate values. Here is the method:
The 5HT3 antagonist activity of the compounds of the invention was determined by measuring the ability of the compounds to inhibit the calcium flux activity of […] receptor expressed in HEK-293T cells. HEK-293T cells were transfected with the 5HT3a expression construct using Xtreme Gene 9 (Roche) in 150 mm tissue culture treated plates and incubated for 24 hours at 37° C. Cells were then split and plated at a density of 60K cells/well in poly-lysine coated, black 96-well plates with clear bottoms (BD BioSciences) and incubated overnight at 37° C. Growth media was removed and cells loaded with 200 uL calcium indicator dye in HBSS containing 20 mM HEPES (Calcium 5 Assay kit, Molecular Devices) and incubated at 37° C. for 1 hour. While cells were incubating, the 10× antagonist and agonist/antagonist addition plates were made. For 10× antagonist plate: half log serial dilutions (final concentrations range from 10^−7 through 10^−10 with the bottom well a negative, no ligand control) were made from test compounds in DMSO at a 1000× concentration and then diluted to 10× in HBSS/20 mM HEPES. For addition plate: 5HT was diluted to 100× in HBSS/20 mM HEPES (final concentration in the assay-216 nM) and 15 uL was added to each well of the addition plate, 15 uL of 10× compound was also added to the addition plate, and finally 120 uL of HBSS/20 mM HEPES (for a total of 150 uL). Cells were then removed from the incubator and equilibrated to room temperature for 10 minutes, then 22.5 uL of 10× test compounds were added in triplicate to the plates and incubated at room temperature for 10 minutes (Tropisetron was used as a positive control in every assay). Test plate and addition plate were loaded into the FlexStation III (Molecular Devices), and using the fluidics, 22.5 uL compound additions were made (at t=˜17 seconds), and fluorescence was measured for 90 seconds, reading every 2.2 seconds. Data sets were analyzed as max minus min using Software Max Pro (Molecular Devices). IC50 curves were generated using non-linear regression in GraphPad Prism.

Sequence of 5HT3a receptor (P46098 24-478): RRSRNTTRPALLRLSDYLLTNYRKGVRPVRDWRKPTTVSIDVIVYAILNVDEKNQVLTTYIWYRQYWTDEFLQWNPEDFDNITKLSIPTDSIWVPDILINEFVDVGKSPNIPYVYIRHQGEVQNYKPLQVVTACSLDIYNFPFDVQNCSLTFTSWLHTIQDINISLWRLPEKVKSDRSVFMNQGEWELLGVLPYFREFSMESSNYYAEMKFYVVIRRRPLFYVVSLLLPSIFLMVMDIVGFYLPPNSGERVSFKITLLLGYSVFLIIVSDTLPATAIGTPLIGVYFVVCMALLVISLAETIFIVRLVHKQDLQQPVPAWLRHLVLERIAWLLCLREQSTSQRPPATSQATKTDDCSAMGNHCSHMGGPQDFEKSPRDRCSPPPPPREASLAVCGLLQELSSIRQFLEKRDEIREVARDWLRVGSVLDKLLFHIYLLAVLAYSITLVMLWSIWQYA

With `CN1[C@@H]2CC[C@H]1C[C@@H](OC(=O)c1cn(CC(F)(F)F)c3ccccc13)C2`, the “discrimination between familiar and novel objects” value in assay [1] (0.1 mg/kg s.c.) was “did not demonstrate a statistically significant discrimination”; in assay [1] (1 mg/kg s.c.) it was “demonstrated a statistically significant discrimination”; in assay [1] (10 mg/kg s.c.) it was “demonstrated a statistically significant discrimination”.
In turn, `CN1[C@@H]2COC[C@H]1CC(OC(=O)c1cn(-c3cncnc3)c3ccccc13)C2` (stereo partly drawn) [Compound 189, (1R,5S,7S)-9-methyl-3-oxa-9-azabicyclo[3.3.1]nonan-7-yl 1-(pyrimidin-5-yl)-1H-indole-3-carboxylate] yielded an IC50 in assay [2] of 460 pM.
As for `COc1ccc2c3c1O[C@H]1C[C@@H](O)C=C[C@@]31CCN(C)C2` [Galantamine, galantamine, reference compound], the “discrimination between familiar and novel objects” value in assay [1] (galantamine 5 mg/kg i.p., 2 h ITI) is “statistically significant discrimination”.
